Data reported in PMC4312629, “Pharmacokinetics of Etravirine Combined with Atazanavir/Ritonavir and a Nucleoside Reverse Transcriptase Inhibitor in Antiretroviral Treatment-Experienced, HIV-1-Infected Patients” (AIDS Research and Treatment, 2015).
Where two headings read alike, the source gives them in different places.

What was measured:
[1] = TEACH: steady-state plasma pharmacokinetics of atazanavir and etravirine (LC-MS/MS, noncompartmental analysis); format: in vivo, HIV-1-infected patients
Procedure: Blood samples for analyses of atazanavir and ritonavir plasma concentrations were collected over 24 hours (before dose and 1, 2, 3, 4, 6, 9, 12, and 24 hours after dose) on the last day of the two-week pretreatment period and after Week 2 of the treatment period. Blood samples for evaluation of etravirine plasma concentrations were collected after Week 2. Atazanavir, ritonavir, and etravirine were assayed using validated liquid chromatography-mass spectrometry/mass spectrometry, with a lower limit of quantification of 250 ng/mL, 5.00 ng/mL, and 2.00 ng/mL, respectively.
Pharmacokinetic parameters were obtained using noncompartmental analysis (WinNonlin Professional version 4.1, Pharsight, Mountain View, CA, USA) and included C min, maximum plasma concentration (C max), and AUC12 h for etravirine and AUC24 h for atazanavir and ritonavir.
The least square means (LSM) of C min, C max, and AUC24 for atazanavir and ritonavir were estimated with a linear mixed-effects model, including treatment as fixed effect and subject as a random effect (SAS version 9.3, SAS Institute, Cary, NC, USA). A 90% confidence interval (CI) was constructed around the difference between the LSM of test and reference. The LSM differences and 90% CIs were retransformed to the original scale. No effect (prespecified) was declared if the 90% CIs of the LSM ratio were within the limits of 80.00–125.00%. The pharmacokinetics of etravirine was compared with historic data from DUET [21].

HIV-1 = details: for median etravirine FC (range): virologic failures (n = 12)
Source text: The main inclusion criteria were HIV-1-infected adults who had previously received ≥1 antiretroviral regimen but failed ≤1 PI-based regimen and were currently on a stable but failing antiretroviral regimen (viral load [VL] > 500 copies/mL at screening) (Cobas Amplicor HIV-1 VL assay, Roche Molecular Systems, Inc., Branchburg, NJ, USA; assay performed by Covance Central Laboratory Services). Patients were required to be sensitive to atazanavir, etravirine, and the selected NRTIs (with the exception of emtricitabine or lamivudine) based on resistance testing at screening using the PhenoSense GT assay (Monogram Biosciences, South San Francisco, CA, USA). […] The clinical cut-offs used for etravirine and boosted atazanavir were 2.9–10.0 and 5.2, respectively.
During the treatment session, plasma VL was determined at baseline, Weeks 2 and 4, and monthly until Week 48. Virologic failures were classified as patients who were still in the study at Week 12 and (i) who never achieved two consecutive VL values < 50 copies/mL (nonresponders) or (ii) first achieved two consecutive VL values < 50 copies/mL followed by two consecutive VL values > 50 copies/mL or discontinued for any reason with VL > 50 copies/mL (rebounders). Changes in viral phenotype and genotype in virologic failures were determined using the PhenoSense GT assay.

[2] = TEACH pharmacokinetic substudy: addition of TDF for seven days to atazanavir/ritonavir and etravirine; details: adding TDF to ATV/r and etravirine, both ATV/r dose groups combined (7 patients), compared with Day −1
Procedure: The trial consisted of a ≤4-week screening period, a pretreatment period of two weeks (atazanavir/ritonavir 300/100 mg qd and two NRTIs), and a 48-week treatment period. Patients were randomized 1 : 1, by a computer-generated interactive web response system, to receive either atazanavir/ritonavir 300/100 mg qd or 400/100 mg qd (Figure 1). […] Atazanavir/ritonavir 400/100 mg qd was given to the other group to offset the potential reduction in atazanavir exposure, while at the same time investigating if the higher dose of atazanavir might further affect etravirine exposure. At baseline, in both groups, one of the two NRTIs was switched to etravirine 200 mg bid. NRTIs were selected by the investigators based on resistance testing; however, tenofovir disoproxil fumarate (TDF) was not permitted. Patients who were intolerant to their NRTI could switch to another sensitive NRTI, excluding TDF. Tenofovir decreases both atazanavir and etravirine exposure.
Seven patients participated in the pharmacokinetic substudy, 3 patients randomized to atazanavir/ritonavir 300/100 mg qd and 4 patients randomized to atazanavir/ritonavir 400/100 mg qd. Because of the small sample size, results of the two groups were combined.

[3] = parameters: method as in PMID 20881958; details: Pooled DUET: ETR 200 mg bid + DRV/r 600/100 mg bid, Week 4 (reference, n = 25), cited from earlier work
[4] = healthy volunteers; etravirine 800 mg bid (formulation TF035) and ATV/r 300/100 mg qd; cited from earlier work
[5] = Test 1 (with ATV/r 300/100 mg qd, Week 2) versus pooled DUET reference (ETR + DRV/r, Week 4)
[6] = Test 2 (with ATV/r 400/100 mg qd, Week 2) versus pooled DUET reference (ETR + DRV/r, Week 4)
[7] = with ATV/r 300/100 mg qd, compared with historic control data (DUET)
[8] = with ATV/r 400/100 mg qd, compared with historic data (DUET)

In the case of `COC(=O)N[C@H](C(=O)N[C@@H](Cc1ccccc1)[C@@H](O)CN(Cc1ccc(-c2ccccn2)cc1)NC(=O)[C@@H](NC(=O)OC)C(C)(C)C)C(C)(C)C` [atazanavir], the Tmax ([1]; human, in vivo, Test 1: ATV/r 300/100 mg qd + one NRTI + ETR 200 mg bid, Week 2, median (range), read-out: atazanavir t max) is reported as 3 h and the “change in atazanavir FC” value (HIV-1; virologic failures, baseline to endpoint) is reported as “no increase”.

For `Cc1cc(C#N)cc(C)c1Oc1nc(Nc2ccc(C#N)cc2)nc(N)c1Br` [etravirine], the “etravirine AUC0–12 h LSM ratio (90% CI) of test versus reference” value [1, 5] was 1.24 (0.88–1.76), the “etravirine C max LSM ratio (90% CI) of test versus reference” value [1, 5] was 1.06 (0.78–1.46) and the “etravirine C min LSM ratio (90% CI) of test versus reference” value [1, 5] was 1.07 (0.60–1.90). For the same compound, the “etravirine AUC0–12 h LSM ratio (90% CI) of test versus reference” value [1, 6] was 0.84 (0.60–1.18), the “etravirine C max LSM ratio (90% CI) of test versus reference” value [1, 6] was 0.87 (0.65–1.18) and the “etravirine C min LSM ratio (90% CI) of test versus reference” value [1, 6] was 0.83 (0.54–1.29). For the same compound, the “increase in etravirine AUC12 h” value [1, 7] was 24%, the “increase in etravirine C max” value [1, 7] was 6% and the “increase in etravirine C min” value [1, 7] was 7%. The “decrease in etravirine AUC12 h” value [1, 8] was 16%, the “decrease in etravirine C max” value [1, 8] was 13% and the “decrease in etravirine C min” value [1, 8] was 17%. For the same compound, the “decrease in etravirine AUC12 h” value [2] was 15%, the “decrease in etravirine C max” value [2] was 19% and the “etravirine AUC12 h LSM ratio [90% CIs]” value [2] was 0.85 [0.79–0.92]. For the same compound, the “etravirine C max LSM ratio [90% CIs]” value [2] was 0.81 [0.72–0.91], the “median etravirine FC (range)” value (HIV-1; at baseline) was 0.73 (0.4–1.7) and the “median etravirine FC (range)” value (HIV-1; at endpoint) was 2.99 (0.6–40.0). The “etravirine AUC0–12 h” value ([3]; mean ± SD) was 7964 ± 11180 ng·h/mL, the “etravirine C 0 h” value ([3]; mean ± SD) was 545.0 ± 818.6 ng/mL and the “etravirine C max” value ([3]; mean ± SD) was 879.6 ± 1030 ng/mL. For the same compound, the “etravirine C min” value ([3]; mean ± SD) was 452.6 ± 806.0 ng/mL, the etravirine t max ([3]; median (range)) was 3.95 (0.08–6.08) h and the “increase in etravirine AUC24 h” value [4] was 1.3 fold. For the same compound, the “increase in etravirine C min” value [4] was 1.3 fold.
